Source: patent US5512595A, “Substituted phenoxyisobutyric acids and esters” (Adir et Compagnie, priority 1993, dated 1996)
Counter-ions that a name gives are not always drawn.

Columns and labels:
human LDL [1] = experiment: Modification (peroxidation) of human LDL by copper sulphate, MDA production; assay type: biochemical; conditions: for activity compared with probucol or vitamin E in protecting human LDL: human LDL in vitro, modifications induced by copper sulphate and endothelial cells; for IC50: inhibition of human LDL oxidation induced by copper sulphate (5.10^-6 M), 24 hours, MDA production, read-out: IC50 (M) Cu^2+ (converted)
Description: (§1) The activity of the compounds was tested in comparison with probucol and vitamin E taken as reference products.
1.1.1 Modification of LDL by copper sulphate
Human LDL are incubated for 24 hours in the presence of copper sulphate (5.10^-6 M) and in the absence or in the presence of the test compounds (10^-9 M to 10^-4 M).
After incubation, the peroxidation of the LDL is evaluated by agar gel electrophoresis and by the formation of one of the products of lipid peroxidation: malonic dialdehyde (MDA) (Parthasarathy S., Young S. G., Witztum J. L., Pittman R. C., and Steinberg D.; J. Clin. Invest. 77; 641-644, 1986).
(§2) The activity of the test compounds is evaluated by calculating the concentrations that reduce by 50% (IC50) the production of MDA compared with the control experiments without those compounds.

human LDL [2] = experiment: Modification (peroxidation) of human LDL by endothelial cells from the rabbit aorta, MDA production; assay type: cell-based; conditions: for IC50: inhibition of human LDL oxidation induced by endothelial cells (rabbit aorta), 24 hours, MDA production
Description: as §1
1.1.2 Modification of LDL by endothelial cells
Human LDL are incubated for 24 hours in the presence of endothelial cells from the rabbit aorta (RECL B4 line provided by Professor Steinberg, U.S.A), and in the absence or in the presence of the test compounds (10^-9 M to 10^-4 M).
After incubation, the peroxidation of the LDL is evaluated by agar gel electrophoresis and by the formation of one of the products of lipid peroxidation: malonic dialdehyde (MDA) (Steinbrecher U. P., Parthasarathy S., Leake D. S., Witztum J. L., and Steinberg D.; Proc. Nat. Acad. Sci. U.S.A 81, 3883-3887, 1984).
as §2

LDL of Watanabe rabbits = experiment: Ex vivo study: peroxidation by copper sulphate of LDL from orally treated Watanabe rabbits, MDA production; assay type: in vivo
Description: as §1
2.1 Materials and methods
Watanabe rabbits (genetically hyperlipidaemic rabbits) weighing from 3 kg to 5 kg are used. […]
After treatment, the LDL of the animals are prepared by ultracentrifugation and subjected to oxidation with copper sulphate (5.10^-6 M). The lipid peroxidation of the LDL is evaluated after various periods of incubation with copper sulphate (from 2 to 24 hours) by measuring the formation of MDA.
Table B groups the MDA production values according to the period of incubation with copper sulphate of the LDL originating from control animals and from animals treated with the compound of Example 1 at different doses or with probucol.

Row | Molecule | IC50 (human LDL [1]) | IC50 (human LDL [2]) | activity compared with probucol or vitamin E in protecting human LDL (human LDL [1]) | other results
1 | CC(C)(Oc1ccc(CSc2cc(C(C)(C)C)c(O)c(C(C)(C)C)c2)cc1)C(=O)O [Example 4, 2-4-(3,5-di-tert-butyl-4-hydroxyphenylthiomethyl)phenoxy!isobutyric acid] | 3e-08 M | – | greater activity | –
2 | Cc1cc(SCCc2ccc(OC(C)(C)C(=O)O)cc2)c(C)c(C)c1O [Example 3, 2-{4-2-(4-hydroxy-2,3,5-trimethylphenylthio)ethyl!phenoxy}isobutyric acid] | 9e-08 M | – | greater activity | –
3 | CC(C)(Oc1ccc(CCCSc2cc(C(C)(C)C)c(O)c(C(C)(C)C)c2)cc1)C(=O)O [Example 5, tert-butylamine salt of 2-{4-3-(3,5-di-tert-butyl-4-hydroxyphenylthio)propyl!phenoxy}isobutyric acid] | 4e-08 M | – | greater activity | –
4 | CC(C)(Oc1ccc(CCOc2cc(C(C)(C)C)c(O)c(C(C)(C)C)c2)cc1)C(=O)O [Example 10, 2-{4-2-(3,5-di-tert-butyl-4-hydroxyphenoxy)ethyl!phenoxy}isobutyric acid] | 2e-08 M | 7 nM | – | –
5 | CC(C)(Oc1ccc(CCSc2cc(C(C)(C)C)c(O)c(C(C)(C)C)c2)cc1)C(=O)O [Example 1, 2-{4-2-(3,5-di-tert-butyl-4-hydroxyphenylthio)ethyl!phenoxy}isobutyric acid] | 5e-08 M | 3 nM | greater activity | times more effective than is probucol (test using endothelial cells) (human LDL [2]; endothelial cells, compared with probucol): 1000 times; MDA production (LDL of Watanabe rabbits; 50 mg/kg/day orally, 3 days, 2 hours incubation of LDL with copper sulphate): 0.66 nmol/mg proteins; MDA production (LDL of Watanabe rabbits; 50 mg/kg/day orally, 3 days, 4 hours incubation of LDL with copper sulphate): 0.35 nmol/mg proteins; MDA production (LDL of Watanabe rabbits; 50 mg/kg/day orally, 3 days, 6 hours incubation of LDL with copper sulphate): 0.31 nmol/mg proteins; MDA production (LDL of Watanabe rabbits; 50 mg/kg/day orally, 3 days, 8 hours incubation of LDL with copper sulphate): 0.26 nmol/mg proteins; MDA production (LDL of Watanabe rabbits; 50 mg/kg/day orally, 3 days, 24 hours incubation of LDL with copper sulphate): 0.86 nmol/mg proteins; inhibition of LDL peroxidation induced by copper sulphate (LDL of Watanabe rabbits; from a dose of 50 mg/kg/day): completely inhibits
6 | Cc1cc(OCCc2ccc(OC(C)(C)C(=O)O)cc2)c(C)c(C)c1O [Example 9, 2-{4-2-(4-hydroxy-2,3,5-trimethylphenoxy)ethyl!phenoxy}isobutyric acid] | 5e-07 M | – | – | –

More lines, main results first:

Row | IC50 (human LDL [1]) | IC50 (human LDL [2]) | Molecule | activity compared with probucol or vitamin E in protecting human LDL (human LDL [1]) | other results
7 | 6e-08 M | – | Cc1c(C)c2c(c(C)c1O)CCC(C)(CCCc1ccc(OC(C)(C)C(=O)O)cc1)O2 (racemic) [Example 18, Tert-butylamine (R,S)-2-{4-3-(6-hydroxy-2,5,7,8-tetramethylchroman-2-yl)propyl!phenoxy}isobutyrate] | – | –
8 | > 0.0001 M | 4000 nM | vitamin E [reference compound] | – | –
9 | 4e-08 M | – | Cc1c(C)c2c(c(C)c1O)CCC(C)(/C=C\Cc1ccc(OC(C)(C)C(=O)O)cc1)O2 (racemic) [Example 15, Tert-butylamine (Z)-(R,S)-2-{4-3-(6-hydroxy-2,5,7,8-tetramethylchroman-2-yl)prop-2-en-1-yl!phenoxy}isobutyrate] | – | –
10 | 3e-06 M | 4000 nM | CC(C)(Sc1cc(C(C)(C)C)c(O)c(C(C)(C)C)c1)Sc1cc(C(C)(C)C)c(O)c(C(C)(C)C)c1 [PROBUCOL, probucol, reference compound] | – | retardation of LDL peroxidation compared with control animals (LDL of Watanabe rabbits; 250 mg/kg/day): approximately 2 hours; MDA production (LDL of Watanabe rabbits; 250 mg/kg/day orally, 2 hours incubation of LDL with copper sulphate): 1.85 nmol/mg proteins; MDA production (LDL of Watanabe rabbits; 250 mg/kg/day orally, 4 hours incubation of LDL with copper sulphate): 3.50 nmol/mg proteins; MDA production (LDL of Watanabe rabbits; 250 mg/kg/day orally, 6 hours incubation of LDL with copper sulphate): 4.90 nmol/mg proteins; MDA production (LDL of Watanabe rabbits; 250 mg/kg/day orally, 8 hours incubation of LDL with copper sulphate): 12.26 nmol/mg proteins; MDA production (LDL of Watanabe rabbits; 250 mg/kg/day orally, 24 hours incubation of LDL with copper sulphate): 23.81 nmol/mg proteins
